Assay [1] addresses T1, KRAS^G12C (Homo sapiens, UniProt P01116, G12C).
T1 construct: endogenous in cells; host or cells: H358, H2122, H2030, SW1573 (KRAS G12C-mutant lung cancer lines, ATCC)
The assay is described as follows: RAS-binding domain (RBD) pulldown of active (GTP-bound) KRAS in KRAS^G12C-mutant cell lines treated with G12C inhibitors. The format is cell-based. As for the experimental part: This was performed as described previously (42) by using the RAS activation kit (Thermo Scientific). Briefly, 50 μg whole cell lysates were incubated with 40 μg GST-RBD and 100 μL glutathione beads for 60 min followed by three washes in NP40 wash buffer and elution of pull-down fractions with 2×SDS PAGE loading dye. The samples were then subjected to western blotting with a KRAS specific (WH0003845M1) antibody (43).

Assay [2] addresses T1, KRAS^G12C. The assay is described as follows: GTPase assays of purified GTP-loaded KRAS^G12C incubated with GAP proteins (γ-phosphate, α-phosphate, continuous phosphate release). The class given is biochemical. As for the experimental part:
GTP[γ^32P] hydrolysis assay. KRAS proteins (0.5 μg) were reacted with 0.04 μM GTP[γ^32P] (6000 Ci/mmol; PerkinElmer Life Sciences) in 100 μL loading buffer (50 mM HEPES, pH 7.5, 50 mM NaCl, 1 mM DTT, 0.1 mM EGTA, 10 mM EDTA, and 1 mg/mL BSA) for 10 min at 30° C. (5, 40). Loading reactions were stopped by placing on ice and adding MgCl2 to a final concentration of 20 mM. The GTPase assays were performed at 30° C. in 100 μL mixtures containing 20 nM of loaded KRAS and either hydrolysis buffer (25 mM HEPES pH 7.5, 50 mM NaCl, 1 mM DTT, 1 mM MgCl2 and 1 mg/mL BSA) alone, or in combination with WCE or purified RGS3 (0.08-0.4 μg/μL). Equimolar comparisons of NF1, RASA1 and RGS3 were carried out using the continuous hydrolysis assay (see below). Reactions were stopped at the indicated time by filtering through 0.45-μm nitrocellulose membrane filters. The filters were washed 3 times with 0.2 mL of ice-cold hydrolysis buffer, air dried, and processed by autoradiography. Reaction rates were determined by fitting an exponential curve to the data, which was normalized to the baseline value. […]
Continuous hydrolysis assay (two-step detection of inorganic phosphate). […] The reaction was monitored by reading the absorbance at 360 nm every 10 to 20 s for ˜16-60 min at room temperature. […]

Results on 2 molecules are retold here after US20240219403A1, “METHODS FOR INHIBITING KRAS ONCOPROTEIN THROUGH ENHANCED GTPASE ACTIVITY” (Memorial Sloan-Kettering Cancer Center, priority 2021, published 2024).

On to `C=CC(=O)N1CCN(c2nc(OC[C@@H]3CCCN3C)nc3c2CCN(c2cccc4cccc(C)c24)C3)C[C@@H]1CC#N` [MRTX1257], for which the “time required for maximal inhibition of KRAS in cells” value in assay [1] (media with 10% serum) is listed as about 60 min; in assay [1] (serum-deprived media (suppresses nucleotide exchange)) it was about 20 min.

Regarding “RGS3: regulator of G protein signaling 3, recombinant p75/p25 variants; GAP for Gαi/q subunit”, in assay [2], the “RGS3-assisted hydrolysis by KRAS^G12C slower than NF1-stimulated hydrolysis by KRAS^WT” value is 1-2 orders of magnitude. Also, the “effect on GTP-hydrolysis by KRAS^G12C” value in assay [2] (purified proteins) is given as “enhanced GTP-hydrolysis”.
